Assay results from the supplement of paper PMC10307832.

Experiments:
Venetoclax = compound: CC1(C)CCC(CN2CCN(c3ccc(C(=O)NS(=O)(=O)c4ccc(NCC5CCOCC5)c([N+](=O)[O-])c4)c(Oc4cnc5[nH]ccc5c4)c3)CC2)=C(c2ccc(Cl)cc2)C1 [Venetoclax]; experiment: relative viability (nuclei count vs DMSO), 5 days (fraction); higher = more cells survive
Method in brief: (§1)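 Nuclei counted with MetaXpress define viability as the ratio of treated to vehicle wells, given as a median across plates. The lung cancer cell lines were in 1536-well plates, pinned with five √10-spaced library-drug doses and imaged at 4× after 5 days and Hoechst staining. Plates passed with control CV below 25% and at least one doubling.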

Selumetinib = compound: Cn1cnc2c(F)c(Nc3ccc(Br)cc3Cl)c(C(=O)NOCCO)cc21 [Selumetinib]; experiment: as above
Method in brief: as §1

Cell Line | relative viability (Venetoclax; 0.01 µM) | relative viability (Venetoclax; 0.03162 µM) | relative viability (Venetoclax; 0.1 µM) | relative viability (Venetoclax; 0.3162 µM) | relative viability (Venetoclax; 1 µM) | relative viability (Selumetinib; 0.02 µM) | relative viability (Selumetinib; 0.06325 µM) | relative viability (Selumetinib; 0.2 µM) | relative viability (Selumetinib; 0.6325 µM)
201T | 0.975 | 0.989 | 0.982 | 0.984 | 0.982 | 0.94 | 0.901 | 0.91 | 0.888
A549 | 0.984 | 0.99 | 0.994 | 0.969 | 0.937 | 0.864 | 0.669 | 0.656 | 0.449
A-427 | 0.892 | 1.14 | 0.901 | 1.08 | 0.998 | 1.1 | 0.994 | 1.03 | 1.05
ABC-1 | 1.11 | 0.981 | 0.974 | 0.938 | 0.897 | 0.885 | 0.757 | 0.875 | 0.841
BEN | 1.03 | 1.09 | 0.887 | 0.999 | 0.941 | 0.934 | 1.02 | 0.863 | 0.938
CAL-12T | 0.944 | 1.05 | 0.923 | 0.956 | 0.886 | 0.88 | 0.794 | 0.781 | 0.737
COR-L23 | 0.979 | 1.03 | 0.967 | 0.999 | 0.911 | 1.09 | 1.03 | 1.07 | 0.99
COR-L 105 | 0.946 | 0.917 | 0.834 | 1.02 | 0.873 | 0.713 | 0.572 | 0.672 | 0.55
Calu-6 | 1.03 | 1.06 | 0.985 | 0.991 | 0.973 | 1.04 | 0.777 | 0.677 | 0.478
ChaGo-K-1 | 1.06 | 1.16 | 0.888 | 1.01 | 0.99 | 0.999 | 0.939 | 0.946 | 0.929
EBC-1 | 0.961 | 1.05 | 0.961 | 0.926 | 0.894 | 0.959 | 0.828 | 0.759 | 0.523
EKVX | 0.998 | 1 | 0.913 | 0.975 | 0.937 | 0.784 | 0.775 | 0.645 | 0.565
EMC-BAC-2 | 0.977 | 1.14 | 0.945 | 1.15 | 0.96 | 1.38 | 1.16 | 1.06 | 1.13
EPLC-272H | 0.874 | 1.09 | 0.934 | 1.03 | 0.888 | 0.875 | 0.774 | 0.614 | 0.648
H3255 | 1 | 1.04 | 0.98 | 1.01 | 0.933 | 0.983 | 0.914 | 0.944 | 0.93
HARA | 0.903 | 1.08 | 0.926 | 1.06 | 0.993 | 0.903 | 0.819 | 0.824 | 0.718

Cell Line | relative viability (Venetoclax; 0.01 µM) | relative viability (Venetoclax; 0.03162 µM) | relative viability (Venetoclax; 0.1 µM) | relative viability (Venetoclax; 0.3162 µM) | relative viability (Venetoclax; 1 µM) | relative viability (Selumetinib; 0.02 µM) | relative viability (Selumetinib; 0.06325 µM) | relative viability (Selumetinib; 0.2 µM) | relative viability (Selumetinib; 0.6325 µM)
HCC-15 | 0.937 | 1.07 | 0.929 | 0.902 | 0.909 | 0.844 | 0.64 | 0.487 | 0.389
HCC-44 | 0.935 | 0.955 | 0.983 | 0.974 | 0.929 | 1 | 1.01 | 1.04 | 1.1
HCC-78 | 1.1 | 1.21 | 1.01 | 0.959 | 0.942 | 0.924 | 0.853 | 0.802 | 0.91
HCC-366 | 0.995 | 1.03 | 0.986 | 1.02 | 0.939 | 0.967 | 0.992 | 0.842 | 0.851
HCC-827 | 1.03 | 1.07 | 0.924 | 1.02 | 1.04 | 1.03 | 1.06 | 0.994 | 0.941
HOP-62 | 1 | 1.05 | 0.989 | 0.973 | 0.927 | 1.02 | 0.897 | 0.886 | 0.549
IA-LM | 0.813 | 1.05 | 0.886 | 0.915 | 0.886 | 0.776 | 0.442 | 0.246 | 0.186
LC-2-ad | 0.942 | 1.01 | 0.978 | 1 | 0.964 | 0.948 | 0.896 | 0.885 | 0.899
LCLC-97TM1 | 0.901 | 1.16 | 0.815 | 0.962 | 0.853 | 0.94 | 0.846 | 0.735 | 0.413
LCLC-103H | 1.06 | 0.999 | 1.04 | 1.01 | 1 | 0.916 | 0.897 | 0.87 | 0.84
LK-2 | 0.947 | 1.11 | 0.929 | 0.938 | 1.02 | 1.08 | 1.05 | 0.88 | 1.04
LOU-NH91 | 0.969 | 1.09 | 0.942 | 0.954 | 0.925 | 0.935 | 0.884 | 0.899 | 0.901
LU99A | 1.02 | 1.01 | 0.84 | 0.987 | 0.994 | 1.01 | 1.05 | 0.91 | 0.912
LXF-289 | 1.17 | 1.02 | 0.944 | 0.956 | 0.883 | 0.948 | 0.932 | 0.835 | 0.778
NCI-H23 | 1 | 1.06 | 0.85 | 1.07 | 0.877 | 1.05 | 0.78 | 0.758 | 0.674
NCI-H322M | 1.05 | 0.982 | 0.899 | 1.06 | 0.938 | 0.83 | 0.681 | 0.651 | 0.624
